≈ marks a conversion by molar mass, not a printed value.
System: HeLa
Test: Cytotoxicity against human HeLa cells
Type: functional, cell-based

`CO[C@H]1C/C=C/c2nc(co2)-c2nc(co2)-c2nc(co2)[C@@H](OC)[C@@H](C)C(=O)/C=C/C[C@H](O)CC(=O)O[C@@H](C[C@H](OC)[C@@H](C)CC[C@@H](O)[C@@H](C)[C@H](O)[C@H](C)/C=C/N(C)C=O)[C@@H]1C` [30,32-DIHYDROXYMYCALOLIDE A] was tested, and the IC50 was 2.6 ng/mL (≈ 2.99 nM).

Source: ChEMBL document CHEMBL1150605, “Isolation of a new mycalolide from the marine sponge Mycale izuensis” (J Nat Prod, 2002)
